The values below come from patent US20090118332A1, “Therapeutic Agents - 551” (AstraZeneca AB, priority 2006, published 2009).

The assay addresses T1, human Fatty Acid Synthase (Homo sapiens, UniProt P49327).
T1 construct: made in house
As to the kind of experiment: Human FAS enzyme assay (decrease in NADPH fluorescence). In kind it is biochemical. The following applies: for inhibition at 100 µM: % inhibition at a concentration of 100 μmolar; for IC50, inhibition of human Fatty Acid Synthase: FAS enzyme assay, IC50 from fitted sigmoid curves. The protocol:
Human and Rat FAS Enzyme Assay.
Fatty acid synthase is an enzyme complex that harbours seven enzymatic activities catalysing the reductive synthesis of long chain fatty acids from acetyl CoA and malonyl CoA to palmitate. When acetyl CoA and malonyl CoA are forming palmitate NADPH is consumed forming NADP. Since NADPH is fluorescent but not NADP the reaction can be measured by analysing the decrease in fluorescence.
Compounds were added to a black 384 well plate (Matrix) in a volume of 5 μl consisting of 20% DMSO and 80% Tris buffer pH 7.5, at a top concentration of 1 mM. NADPH, 30 μl of 166.6 μM, formulated in assay buffer (0.1M Tris ph7.5, 0.1 mM EDTA, 1 mM glutathione, 0.05% BSA), was then added to all of the wells of the plate. Fatty acid synthase Human or rat enzyme (0.4 μg, produced in house), dissolved in 20 mM Tris/HCl pH 7.5, 5 mM BOG, 1 mM TCEP, 10% glycerol, 1 mM EDTA, 150 mM NaCl, was then added to the plate in a volume of 10 μl. Enzyme was added to all but the last two columns of the plate, to which, 10 μl of assay buffer was added (0.1M Tris ph7.5, 0.1 mM EDTA, 1 mM glutathione, 0.05% BSA) to provide a no enzyme assay control. Following a 15-minute incubation period, at room temperature, the plates were read on an Envision plate reader using 340 nm excitation and 460 nm emission filters. This served as a time zero background read. Substrates (an equal mix of both malonyl and acetyl CoA) were then added to the plates in a total volume of 5 μl. The concentrations of malonyl and acetyl CoA in the mixture were 500 μM and 150 μM respectively. Both were prepared as 10 mM stock solutions in distilled water and were subsequently diluted to working concentrations in assay buffer. Plates were then incubated for a further 60 minutes, at room temperature, before being read again on the Envision reader using the same parameters as previously used. The data was analysed by subtracting the background time zero data from that generated following the final 60 minute incubate and the percent inhibition compared to the maximum and minimum assay controls was determined. Sigmoid curves were fitted using Origin 7.5 Client software and IC50 values were determined.

T1 sequence (P49327 whole entry): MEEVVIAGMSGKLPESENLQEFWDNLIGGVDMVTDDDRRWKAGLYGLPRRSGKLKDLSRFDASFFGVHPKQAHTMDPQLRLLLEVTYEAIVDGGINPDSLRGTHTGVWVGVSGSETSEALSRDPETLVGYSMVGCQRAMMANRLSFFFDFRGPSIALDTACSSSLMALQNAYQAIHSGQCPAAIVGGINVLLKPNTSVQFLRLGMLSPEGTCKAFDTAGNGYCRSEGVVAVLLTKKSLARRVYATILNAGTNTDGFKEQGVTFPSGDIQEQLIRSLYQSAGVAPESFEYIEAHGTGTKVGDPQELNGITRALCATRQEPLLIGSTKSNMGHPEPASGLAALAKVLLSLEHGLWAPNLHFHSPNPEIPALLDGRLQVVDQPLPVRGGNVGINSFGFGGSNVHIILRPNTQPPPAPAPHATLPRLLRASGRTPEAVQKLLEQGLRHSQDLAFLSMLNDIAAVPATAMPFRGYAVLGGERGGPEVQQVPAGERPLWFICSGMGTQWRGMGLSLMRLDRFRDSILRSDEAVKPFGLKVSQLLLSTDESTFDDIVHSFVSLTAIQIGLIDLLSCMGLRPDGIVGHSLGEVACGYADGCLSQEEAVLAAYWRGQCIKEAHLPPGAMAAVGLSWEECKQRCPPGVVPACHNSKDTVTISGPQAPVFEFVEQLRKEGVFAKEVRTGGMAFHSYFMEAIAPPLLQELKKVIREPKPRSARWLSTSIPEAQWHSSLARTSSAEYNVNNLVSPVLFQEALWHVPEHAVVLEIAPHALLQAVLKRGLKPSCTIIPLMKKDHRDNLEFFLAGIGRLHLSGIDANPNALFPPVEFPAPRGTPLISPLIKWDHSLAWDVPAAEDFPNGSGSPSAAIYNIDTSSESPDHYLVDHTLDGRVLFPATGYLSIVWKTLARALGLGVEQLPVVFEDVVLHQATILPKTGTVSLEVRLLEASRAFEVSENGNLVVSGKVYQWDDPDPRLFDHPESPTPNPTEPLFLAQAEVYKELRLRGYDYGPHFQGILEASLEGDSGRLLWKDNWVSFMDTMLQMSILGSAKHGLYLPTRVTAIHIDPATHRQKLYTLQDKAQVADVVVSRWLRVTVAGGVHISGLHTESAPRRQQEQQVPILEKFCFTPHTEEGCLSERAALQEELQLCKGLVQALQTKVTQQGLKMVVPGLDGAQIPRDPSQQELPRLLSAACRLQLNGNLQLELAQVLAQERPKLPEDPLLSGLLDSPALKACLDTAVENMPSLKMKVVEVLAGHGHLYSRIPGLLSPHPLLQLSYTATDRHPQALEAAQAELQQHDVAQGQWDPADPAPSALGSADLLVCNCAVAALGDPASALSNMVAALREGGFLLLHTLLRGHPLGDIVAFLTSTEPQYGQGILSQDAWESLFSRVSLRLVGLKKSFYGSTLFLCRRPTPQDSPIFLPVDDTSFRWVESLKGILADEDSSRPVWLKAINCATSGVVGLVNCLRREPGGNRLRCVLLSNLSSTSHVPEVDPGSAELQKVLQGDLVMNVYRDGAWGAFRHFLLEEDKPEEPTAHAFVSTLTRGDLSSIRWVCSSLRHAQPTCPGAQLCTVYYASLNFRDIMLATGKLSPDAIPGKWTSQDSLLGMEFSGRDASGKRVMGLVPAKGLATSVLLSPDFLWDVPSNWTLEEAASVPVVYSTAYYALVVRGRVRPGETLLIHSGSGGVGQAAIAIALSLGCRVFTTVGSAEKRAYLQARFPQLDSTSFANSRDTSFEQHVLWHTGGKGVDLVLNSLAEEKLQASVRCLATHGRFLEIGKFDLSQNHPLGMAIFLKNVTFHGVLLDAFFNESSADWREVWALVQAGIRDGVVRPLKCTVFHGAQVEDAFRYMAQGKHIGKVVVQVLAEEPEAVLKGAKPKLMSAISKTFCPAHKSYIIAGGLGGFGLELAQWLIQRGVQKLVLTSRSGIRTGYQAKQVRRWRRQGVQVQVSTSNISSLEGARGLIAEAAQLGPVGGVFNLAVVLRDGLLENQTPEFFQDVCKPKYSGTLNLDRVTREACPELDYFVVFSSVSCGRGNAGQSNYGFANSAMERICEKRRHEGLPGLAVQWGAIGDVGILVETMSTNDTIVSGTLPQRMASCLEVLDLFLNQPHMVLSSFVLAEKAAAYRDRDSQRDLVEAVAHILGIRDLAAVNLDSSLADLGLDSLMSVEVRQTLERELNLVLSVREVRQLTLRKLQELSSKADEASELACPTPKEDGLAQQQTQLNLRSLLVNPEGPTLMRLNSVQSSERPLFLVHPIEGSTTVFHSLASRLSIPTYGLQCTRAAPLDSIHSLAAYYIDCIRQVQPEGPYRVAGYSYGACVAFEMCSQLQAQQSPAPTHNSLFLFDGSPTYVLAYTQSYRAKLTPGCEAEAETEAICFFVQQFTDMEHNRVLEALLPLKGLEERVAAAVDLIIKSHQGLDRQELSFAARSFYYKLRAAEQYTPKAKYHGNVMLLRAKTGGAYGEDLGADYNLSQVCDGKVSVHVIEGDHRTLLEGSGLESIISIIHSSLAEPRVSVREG

For orientation: inhibition means the change of the read-out against control, counted positive when it falls. As to `Cc1ccc(C(=O)N2CCC(c3ccc(C#N)cc3)CC2)cc1NC(=O)NC(C)Cc1c[nH]c2ccccc12` (racemic) [Example 70, (RS)-1-[5-[4-(4-cyanophenyl)piperidine-1-carbonyl]-2-methyl-phenyl]-3-[1-(1H-indol-3-yl)propan-2-yl]urea], the inhibition at 100 µM turned out to be 87.7%.
As for `Cc1ccc(C(=O)N2CCC(c3ccc(C#N)cc3)CC2)cc1NC(=O)NC1CCCCC1O` (racemic) [Example 187, (RS) 1-[5-[4-(4-cyanophenyl)piperidine-1-carbonyl]-2-methyl-phenyl]-3-(2-hydroxycyclohexyl)urea], the inhibition at 100 µM was 90.4%.
Same read-out and setting: as for `Cc1ccc(C(=O)N2CCC(c3ccc(C#N)cc3)CC2)cc1NC(=O)NCC(O)C(F)(F)F` (racemic) [Example 195, (RS)-1-[5-[4-(4-cyanophenyl)piperidine-1-carbonyl]-2-methyl-phenyl]-3-(3,3,3-trifluoro-2-hydroxy-propyl)urea], the figure is 88.6%; as for `Cc1ccc(C(=O)N2CCC(c3ccc(C#N)cc3)CC2)cc1NC(=O)NC1CCCNC1=O` (racemic) [Example 236, (RS)-1-[5-[4-(4-cyanophenyl)piperidine-1-carbonyl]-2-methyl-phenyl]-3-(2-oxo-3-piperidyl)urea], 77.1%.
For the molecule `Cc1ccc(C(=O)N2CCC(c3ccc(C#N)cc3)CC2)cc1NC(=O)NC1Cc2cccnc2NC1=O` (racemic) [Example 239, (RS)-1-[5-[4-(4-cyanophenyl)piperidine-1-carbonyl]-2-methyl-phenyl]-3-(2-oxo-3,4-dihydro-1H-1,8-naphthyridin-3-yl)urea], the inhibition at 100 µM was determined as 86.5%.
For the molecule `Cc1ccc(C(=O)N2CCC(c3ccc(C#N)cc3)CC2)cc1NC(=O)NC(C)COc1ccccc1` (racemic) [Example 253, (RS)-1-[5-[4-(4-cyanophenyl)piperidine-1-carbonyl]-2-methyl-phenyl]-3-(1-phenoxypropan-2-yl)urea], the inhibition at 100 µM was 90.9%.
Take `Cc1ccc(C(=O)N2CCC(c3ccc(C#N)cc3)CC2)cc1NC(=O)NC1CCCN(C)C1` (racemic) [Example 255, (RS)-1-[5-[4-(4-cyanophenyl)piperidine-1-carbonyl]-2-methyl-phenyl]-3-(1-methyl-3-piperidyl)urea]: the inhibition at 100 µM is 102%.
Take `CCc1ccc(C(=O)N2CCC(c3ccc(C#N)cc3)CC2)cc1NC(=O)NCC1COCCO1` (racemic) [Example 259, (RS)-1-[5-[4-(4-cyanophenyl)piperidine-1-carbonyl]-2-ethyl-phenyl]-3-(1,4-dioxan-2-ylmethyl)urea]: the inhibition at 100 µM came to 102%.
Turning to `Cc1ccc(C(=O)N2CCC(c3ccc(C#N)cc3)CC2)cc1NC(=O)N[C@H]1CCCC[C@H]1N` (relative stereo) [Example 304, 3-[(cis)-2-aminocyclohexyl]-1-[5-[4-(4-cyanophenyl)piperidine-1-carbonyl]-2-methyl-phenyl]urea], the inhibition at 100 µM was determined as 92.8%.
Take `Cc1ccc(C(=O)N2CCC(c3ccc(C#N)cc3)CC2)cc1NC(=O)N[C@@H]1CCCC[C@H]1N` (relative stereo) [Example 305, 3-[(trans)-2-aminocyclohexyl]-1-[5-[4-(4-cyanophenyl)piperidine-1-carbonyl]-2-methyl-phenyl]urea]: the inhibition at 100 µM was found to be 78.8%.
In the case of `Cc1ccc(C(=O)N2CCC(c3ccc(C#N)cc3)CC2)cc1NC(=O)N[C@H]1CCCC[C@H]1NS(C)(=O)=O` (relative stereo) [Example 307, 1-[5-[4-(4-cyanophenyl)piperidine-1-carbonyl]-2-methyl-phenyl]-3-[(cis)-2-methanesulfonamidocyclohexyl]urea], the inhibition at 100 µM turned out to be 96.1%.
For `CC(=O)N[C@@H]1CCCC[C@@H]1NC(=O)Nc1cc(C(=O)N2CCC(c3ccc(C#N)cc3)CC2)ccc1C` (relative stereo) [Example 308, N-[(cis)-2-[[5-[4-(4-cyanophenyl)piperidine-1-carbonyl]-2-methyl-phenyl]carbamoylamino]cyclohexyl]acetamide], the inhibition at 100 µM was found to be 91.5%.
With `CCS(=O)(=O)N[C@@H]1CCCC[C@@H]1NC(=O)Nc1cc(C(=O)N2CCC(c3ccc(C#N)cc3)CC2)ccc1C` (relative stereo) [Example 309, 3-[5-[4-(4-cyanophenyl)piperidine-1-carbonyl]-2-methyl-phenyl]-1-[(cis)-2-(ethylsulfonylamino)cyclohexyl]urea], the inhibition at 100 µM was found to be 96.7%.
As to `Cc1ccc(C(=O)N2CCC(c3ccc(C#N)cc3)CC2)cc1NC(=O)N[C@H]1CCCC[C@@H]1NS(C)(=O)=O` (relative stereo) [Example 315, 1-[5-[4-(4-cyanophenyl)piperidine-1-carbonyl]-2-methyl-phenyl]-3-[(trans)-2-methanesulfonamidocyclohexyl]urea], the inhibition at 100 µM worked out at 104%.
Consider `Cc1ccc(C(=O)N2CCC(c3ccc(C#N)cc3)CC2)cc1NC(=O)N[C@@H]1CCCC[C@@H]1NS(=O)(=O)N(C)C` (relative stereo) [Example 317, 1-[5-[4-(4-cyanophenyl)piperidine-1-carbonyl]-2-methyl-phenyl]-3-[(cis)-2-(dimethylsulfamoylamino)cyclohexyl]urea], for which the inhibition at 100 µM stood at 94.9%.
Turning to `Cc1ccc(C(=O)N2CCC(c3ccc(C#N)cc3)CC2)cc1NC(=O)N[C@@H]1CCCC[C@H]1NS(=O)(=O)N(C)C` (relative stereo) [Example 319, 1-[5-[4-(4-cyanophenyl)piperidine-1-carbonyl]-2-methyl-phenyl]-3-[(trans)-2-(dimethylsulfamoylamino)cyclohexyl]urea], the inhibition at 100 µM came out at 84.3%.
With `CC(=O)N[C@@H]1CCCC[C@H]1NC(=O)Nc1cc(C(=O)N2CCC(c3ccc(C#N)cc3)CC2)ccc1C` (relative stereo) [N-[(trans)-2-[[5-[4-(4-cyanophenyl)piperidine-1-carbonyl]-2-methylphenyl]carbamoylamino]cyclohexyl]acetamide], the “IC50, inhibition of human Fatty Acid Synthase” value (“IC50, inhibition” for short) is given as “do not have IC50s in the range of about 0.001 μM to about 30 μM”.
`Cc1ccc(C(=O)N2CCC(c3ccc(C#N)cc3)CC2)cc1NC(=O)NC1CN2CCC1CC2` (stereo in doubt) [Example 270, 3-[(8S)-1-azabicyclo[2.2.2]oct-8-yl]-1-[5-[4-(4-cyanophenyl)piperidine-1-carbonyl]-2-methyl-phenyl]urea]: the inhibition at 100 µM came out at 89.4%.
`Cc1ccc(C(=O)N2CCC(O)(c3ccccc3)CC2)cc1NC(=O)NC(C)C` [1-[5-(4-hydroxy-4-phenylpiperidine-1-carbonyl)-2-methylphenyl]-3-propan-2-ylurea]: the “IC50, inhibition” value was “do not have IC50s in the range of about 0.001 μM to about 30 μM”.
`Cc1ccc(C(=O)N2CCC(c3ccccc3C#N)CC2)cc1NC(=O)NC(C)C` [1-[5-[4-(2-cyanophenyl)piperidine-1-carbonyl]-2-methylphenyl]-3-propan-2-ylurea]: the “IC50, inhibition” value is given as “do not have IC50s in the range of about 0.001 μM to about 30 μM”.
`Cc1ccc(C(=O)N2CCC(O)(c3ccccc3F)CC2)cc1NC(=O)NC(C)C` [1-[5-[4-(2-fluorophenyl)-4-hydroxypiperidine-1-carbonyl]-2-methylphenyl]-3-propan-2-ylurea]: the “IC50, inhibition” value is “do not have IC50s in the range of about 0.001 μM to about 30 μM”.
